In patent US4223041A, “Urea derivatives to treat anxiety and aggressivity” (Labaz, priority 1976, dated 1980):

Key:
[1] = Action with respect to tremorine (cholinolytic properties); assay type: in vivo, mouse
Method: This test has been described by EVERETT (Nature, 1956, 177-238)
When injected into mice, tremorine produces peripheral cholinergic effects i.e. weeping, hypersalivation, sedation, diarrhea as well as central cholinergic effects i.e. tremors, akinesia.
Batches of 10 mice separated into individual cages, were given the compound to be studied, by oral route, 30 minutes before administration of an intraperitoneal dose of 100 mg/kg of tremorine.
Note was then taken in each batch of the percentage of animals presenting the various symptoms of tremorine-induced poisoning since at such a dose of tremorine 100% of the control animals are poisoned.
The results hereunder are expressed in percentage of mice protected against tremor at the dose of the compound of the invention which was administered: […]

[2] = Four plates test (anxiolytic action); assay type: in vivo, mouse
Text: This test, which is specific to the anxiolytics, was undertaken with the mouse, thirty minutes after the oral administration of the compound to be studied.
It consists in placing mice in a box with fairly high walls, of which the bottom comprises four square plates. These plates, which all have the same dimensions, are separated from each other by a central axis and are alternately electrified by the positive and negative poles of a source of electric current. There is a space of a few millimeters between adjacent plates.
The mouse placed in this apparatus explores it and thus passes over the different plates in succession. Note is taken of the number of times each animal passes over the plates during one minute. When the current is switched on, the mouse passing over the plates receives an electric shock (80 V), which provokes a gradual decrease in the exploratory movements, and finally brings the animals to a complete stop.
Anxiolytic agents enable the animals to become more or less indifferent to the electric shock.
The percentage of protection against anxiety given by compounds of the invention was calculated by comparing the number of times the control animals passed over the plates when electrified with the number of times the treated animals passed over the electrified plates.

[3] = Acute toxicity in mice; conditions: mouse, in vivo
Method: Acute toxicity was determined on Swiss E.O.P.S. mice, by oral route, using the technique of LITCHFIELD and WILCOXON (J. Pharmacol. Exp. Ther. […], 96, 99).

[4] = Influence on acetylcholine-induced hypotension and bradycardia; assay type: in vivo; conditions: 100 mg/kg i.p., rat
Method: Similarly, at a dose of 100 mg/kg by intraperitoneal route, the preferred compound of the invention has no influence on acetylcholine-induced hypotension and bradycardia in the rat.

[5] = Effects on α- and β-adrenergic effects provoked by epinephrine; assay type: in vivo, rat; conditions: 200 mg/kg i.p.
[6] = Acute toxicity in rats; conditions: rat, in vivo
[7] = Anxiolytic and antiaggressive properties and separation from sedation (general statements); conditions: in vivo
[8] = Aggressivity of the isolated mouse (antiaggressive activity); assay type: in vivo
Text: If a male mouse is isolated in a cage for three to four weeks, it will spontaneously attack any other animal of the same species which is placed in the same cage.
Mice wer isolated for the period of time required to render them spontaneously aggressive. Two mice, one rendered aggressive and one in a normal non-aggressive state, were then placed together and note was taken of the number of attacks by the aggressive mouse which occurred over a period of three minutes.
Each batch was composed of five pairs of animals.
The aggressive animals of each batch were then treated by oral route with the compound to be studied which was administered in such a way that the aggressive animals of each batch received a higher dose than those of the preceding batch.
Thirty minutes after administration, the couples were placed together again for a further three minutes and the number of attacks noted.

[9] = Action on the cardiovascular and respiratory system; assay type: in vivo, rat
[10] = spontaneous motoricity in the mouse; assay type: in vivo
Text: This test is described in U.S. Pat. No. 3,929,869.

[11] = traction test (balance, muscular tonus and strength); conditions: mouse, in vivo; oral, mice, 60 minutes after administration; read-out: ED50 (dose which causes 50% failures in the traction test)
[12] = "Electrically-provoked combat" test (anxiolytic action); assay type: in vivo, mouse; conditions: mice
Text: Under certain conditions, a pair of mice reacts to an electric stimulus by a series of combats which are provoked by the anxiety felt by the animals as a result of the electric shock. This anxiety is expressed by a combat with the other animal which is rendered responsible. For this reason, the test described hereunder can be considered as a means of evaluating the anxiolytic action of a compound. Two mice which have been previously on a diet consisting only of water are placed together in a cage. They are then submitted to a series of electric impulses of an intensity varying between 40 and 80 volts according to the sensitivity of the animals. The test is first carried out with untreated animals as controls and then with the same animals treated 30 minutes before the test with a dose of the compound to be studied.
Note is taken on the number of combats engaged. The results are expressed in percentage of decrease in the number of combats engaged by the treated animals in comparison with the number of combats registered before treatment.

[13] = Potentiation of barbiturates, tranquillizers and ethanol; assay type: in vivo
Text: Additional pharmacological tests carried out with the preferred compound of the invention have shown that a non-sedative dose of this compound potentiates the hypnotic effect of the barbiturates as well as the sedative effect of tranquillizers such as meprobamate and diazepam.

[14] = 3000 mg/kg oral, 8-day observation, read-out: deaths
[15] = 100 and 200 mg/kg i.p., anaesthetized rat

CCCC(CCC)(CCC)NC(N)=O [Compound A, 1-(1,1-Di-n-propyl-n-butyl)-urea]
% of protection against tremor ([1]; 200 mg/kg oral, mice, 30 min before 100 mg/kg i.p. tremorine): 0%
protection against central or peripheral cholinergic effects provoked by tremorine ([1]; 100, 300, 400 and 500 mg/kg oral): did not protect any animal
inhibition in vivo at 175 mg/kg ([2]; 0.5 h, 175 mg/kg oral, mouse, 30 min after administration, read-out: % of protection against anxiety): 25%
positive result in four plates test without sedative effect ([2]; at ED25 of four plates test): without any sedative effect
mortality at 192 h [3, 14]: 5%
LD50 ([3]; oral): > 3000 mg/kg
influence on acetylcholine-induced bradycardia [4]: no influence
influence on acetylcholine-induced hypotension [4]: no influence
α-adrenergic effects provoked by epinephrine [5]: does not modify
β-adrenergic effects provoked by epinephrine [5]: does not modify
mortality at 192 h [6, 14]: 10%
LD50 at 192 h ([6]; oral): > 3000 mg/kg
anxiolytic and antiaggressive activity (in words) [7]: most outstanding anxiolytic and antiaggressive properties
sedative effects at antiaggressive dose ([8]; 100 mg/kg oral): entirely devoid of any sedative effects
ED50 ([8]; 0.5 h, oral, isolated mouse, 30 min after administration, read-out: ED50 (50% fewer attacks)): 142 mg/kg
minimal effective dose ([8]; 0.5 h, oral, isolated mouse, read-out: dose from which antiaggressive action is exerted): 100 mg/kg
cardiac frequency [9, 15]: does not modify
respiratory frequency [9, 15]: does not modify
systemic arterial blood pressure [9, 15]: does not modify
action on the cardiovascular or respiratory system ([9]; rat, in vivo): no appreciable action
decrease in spontaneous motoricity ([10]; 175 mg/kg oral, mouse, 60 minutes, non-significant): 12%
Spontaneous motoricity (% of decrease) ([10]; comparison at 25%-protection dose of four plates test, 175 mg/kg): 12%
decrease in spontaneous motoricity at dose giving 80% reduction in combats ([10]; dose producing 80% decrease in the number of combats): without any action on spontaneous motoricity
TD50 at 1 h [11]: 600 mg/kg
inhibition in vivo at 58 mg/kg ([12]; Mus musculus, 0.5 h, 58 mg/kg, 30 min before test, read-out: % of decrease in number of combats): 50%
decrease in number of combats obtainable without altering spontaneous motoricity ([12]; without action on spontaneous motoricity): 80%
potentiation of the effects of ethanol ([13]; in vivo): slight potentiation
hypnotic effect of the barbiturates ([13]; non-sedative dose): potentiates
sedative effect of tranquillizers such as meprobamate and diazepam ([13]; non-sedative dose): potentiates
